Values quoted from earlier work in US20100209356A1, “CONTRAST AGENTS” (priority 2007, published 2010).

Conditions: high risk patients; iodixanol compared with a low-osmolar, non-ionic contrast medium

- nephropathy induced by contrast medium: less likely to develop
SMILES: CC(=O)N(CC(O)CN(C(C)=O)c1c(I)c(C(=O)NCC(O)CO)c(I)c(C(=O)NCC(O)CO)c1I)c1c(I)c(C(=O)NCC(O)CO)c(I)c(C(=O)NCC(O)CO)c1I (stereo not shown) [iodixanol]
